Literature values as cited in US10781456B2, “Carbon-neutral and carbon-positive photorespiration bypass routes supporting higher photosynthetic rate and yield” (Max-Planck-Gesellschaft zur Förderung der Wissenschaften …, priority 2015, dated 2020).

Target: T1, 3-phosphoglycerate kinase (Sus scrofa, UniProt Q7SIB7)
T1 sequence (Q7SIB7 1-417): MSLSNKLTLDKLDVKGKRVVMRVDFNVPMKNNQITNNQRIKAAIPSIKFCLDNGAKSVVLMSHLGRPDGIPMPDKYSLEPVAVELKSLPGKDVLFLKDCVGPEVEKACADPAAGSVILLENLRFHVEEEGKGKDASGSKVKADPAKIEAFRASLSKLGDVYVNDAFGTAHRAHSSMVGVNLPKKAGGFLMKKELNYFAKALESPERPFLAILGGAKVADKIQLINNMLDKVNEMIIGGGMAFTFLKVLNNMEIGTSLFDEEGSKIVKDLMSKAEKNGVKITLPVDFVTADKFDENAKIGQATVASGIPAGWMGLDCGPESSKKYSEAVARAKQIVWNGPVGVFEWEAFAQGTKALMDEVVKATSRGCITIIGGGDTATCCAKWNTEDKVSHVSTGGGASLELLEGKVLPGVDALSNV
Conditions: Tompa 1986; Vas 1990; Szilagyi 1998; cited from earlier work

## O=C(O)COP(=O)(O)O [2-PG, 2-phosphoglycolate]
  type of inhibition of 3-phosphoglycerate kinase: competitive inhibitor
